Results: ChEMBL document CHEMBL1154499 (Bioorg Med Chem Lett, 2008)

How the values were obtained:
[1] = biological target: T1, Transcriptional activator protein LuxR (Vibrio fischeri (strain ATCC 700601 / ES114), UniProt P35327); assay: (§1) Antagonist activity at Vibrio fischeri ES114 LuxR receptor assessed as inhibition of OHHL-induced response by luciferase reporter gene assay; format: functional, Aliivibrio fischeri
T1 sequence (P35327 whole entry): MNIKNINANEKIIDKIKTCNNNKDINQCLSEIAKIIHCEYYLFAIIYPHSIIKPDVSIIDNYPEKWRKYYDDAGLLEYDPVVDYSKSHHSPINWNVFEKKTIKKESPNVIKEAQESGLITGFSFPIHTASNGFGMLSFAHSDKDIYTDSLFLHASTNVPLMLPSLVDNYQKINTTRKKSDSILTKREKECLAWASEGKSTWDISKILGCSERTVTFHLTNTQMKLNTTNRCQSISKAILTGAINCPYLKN

[2] = (§2) Antagonist activity at Escherichia coli DH5alpha LasR receptor assessed as inhibition of OdDHL-induced response by beta-galctosidase reporter gene assay; format: functional
[3] = biological target: T2, Transcriptional activator protein LuxR (Vibrio fischeri (strain ATCC 700601 / ES114)) (UniProt P35327); assay: as §1; format: functional; settings: Aliivibrio fischeri, concentration not given here
T2 sequence (whole entry): T1 sequence (P35327 whole entry)

[4] = biological target: T3, Transcriptional activator protein TraR (Agrobacterium tumefaciens, UniProt P33905); assay: Antagonist activity at Agrobacterium tumefaciens WCF47 TraR receptor assessed as inhibition of OOHL-induced response by beta-galctosidase reporter gene assay
T3 sequence (P33905 whole entry): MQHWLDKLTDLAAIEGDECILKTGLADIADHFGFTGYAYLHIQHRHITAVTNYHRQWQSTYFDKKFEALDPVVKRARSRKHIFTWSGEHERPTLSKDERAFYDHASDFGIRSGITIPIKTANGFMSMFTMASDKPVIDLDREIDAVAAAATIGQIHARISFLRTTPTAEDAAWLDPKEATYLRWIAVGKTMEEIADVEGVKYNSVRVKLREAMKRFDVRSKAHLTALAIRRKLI

Escherichia coli [5] = assay: as §2; format: functional; settings: dose or concentration not given here
[6] = Agonist activity at Escherichia coli DH5alpha LasR receptor by beta-galctosidase reporter gene assay; format: functional
Escherichia coli [7] = assay: Agonist activity at Escherichia coli DH5alpha LasR receptor at 100 uM by beta-galctosidase reporter gene assay relative to OdDHL; format: functional
[8] = biological target: T2, Transcriptional activator protein LuxR (Vibrio fischeri (strain ATCC 700601 / ES114)); assay: Agonist activity at Vibrio fischeri ES114 LuxR receptor at 100 uM by luciferase reporter gene assay relative to OHHL; format: functional; settings: Aliivibrio fischeri

Structure (SMILES)	IC50 [1]	IC50 [2]	IC50 [4]	other results
O=C(CCc1cccc(C(F)(F)F)c1)N[C@H]1CCOC1=O	500 nM	–	–	–
O=C(CCc1cccc([N+](=O)[O-])c1)N[C@H]1CCOC1=O	880 nM	3400 nM	–	–
COc1cccc(CC(=O)N[C@H]2CCOC2=O)c1	2500 nM	–	–	inhibition [3]: 85%
O=C(COc1ccc(Br)cc1)N[C@H]1CCOC1=O	3000 nM	2100 nM	510 nM	inhibition (Escherichia coli [5]): 67%
O=C(COc1ccc(Cl)cc1)N[C@H]1CCOC1=O	–	4700 nM	620 nM	–
Cc1cccc(CC(=O)N[C@H]2CCOC2=O)c1	2000 nM	–	–	inhibition [3]: 91%
O=C(Cc1ccc(I)cc1)N[C@H]1CCOC1=O	–	1720 nM	1250 nM	–
O=C(CCc1ccc(Cl)cc1)N[C@H]1CCOC1=O	970 nM	2200 nM	3300 nM	–
CSc1ccc(CCC(=O)N[C@H]2CCOC2=O)cc1	1700 nM	–	1100 nM	–
O=C(COc1ccc([N+](=O)[O-])cc1)N[C@H]1CCOC1=O	–	–	290 nM	–
Cc1ccc(CCC(=O)N[C@H]2CCOC2=O)cc1	2200 nM	4300 nM	–	–
O=C(CCc1ccc(C(F)(F)F)cc1)N[C@H]1CCOC1=O	2200 nM	–	210 nM	EC50 [6]: > 10000 nM
O=C(CCc1ccc2c(c1)OCO2)N[C@H]1CCOC1=O	–	3400 nM	–	–
CCCCCCCCCC(=O)CC(=O)N[C@H]1CCOC1=O	–	–	–	EC50 [6]: 10 nM
Cc1cccc(CCC(=O)N[C@H]2CCOC2=O)c1	2100 nM	8900 nM	–	–
CCCCCC(=O)CC(=O)N[C@H]1CCOC1=O	–	–	–	EC50 [6]: > 10000 nM
O=C(Cc1ccc(SC(F)(F)F)cc1)N[C@H]1CCOC1=O	1300 nM	–	4700 nM	Activity (Escherichia coli [7]): 65%
O=C(CCc1cccc(Br)c1)N[C@H]1CCOC1=O	530 nM	3300 nM	–	–
O=C(COc1ccc(F)cc1)N[C@H]1CCOC1=O	–	–	2700 nM	–
O=C(CCc1ccc(Br)cc1)N[C@H]1CCOC1=O	–	340 nM	–	–
O=C(Cc1cccc([N+](=O)[O-])c1)N[C@H]1CCOC1=O	–	610 nM	–	–
O=C(CCc1ccc(I)cc1)N[C@H]1CCOC1=O	630 nM	–	2100 nM	–
COc1ccc(OCC(=O)N[C@H]2CCOC2=O)cc1	–	–	4300 nM	–

Structure (SMILES)	IC50 [1]	IC50 [2]	IC50 [4]	other results
N#Cc1cccc(CC(=O)N[C@H]2CCOC2=O)c1	–	–	–	Activity [8]: 75%
O=C(COc1ccc(I)cc1)N[C@H]1CCOC1=O	1900 nM	2000 nM	440 nM	inhibition (Escherichia coli [5]): 63%
O=C(Cc1ccc2ccccc2c1)N[C@H]1CCOC1=O	940 nM	–	4200 nM	–
O=C(Cc1ccc(Cl)c(Cl)c1)N[C@H]1CCOC1=O	–	–	2400 nM	–
O=C(Cc1cc(C(F)(F)F)cc(C(F)(F)F)c1)N[C@H]1CCOC1=O	–	–	–	EC50 [6]: 6300 nM; Activity [8]: 70%
O=C(Cc1ccc([N+](=O)[O-])cc1)N[C@H]1CCOC1=O	960 nM	–	2250 nM	–
O=C(COc1cccc([N+](=O)[O-])c1)N[C@H]1CCOC1=O	2400 nM	–	–	–
CSc1cccc(CC(=O)N[C@H]2CCOC2=O)c1	1500 nM	–	–	–
CCCC(=O)CC(=O)N[C@H]1CCOC1=O	–	–	–	EC50 [6]: > 10000 nM
Cc1ccc(OCC(=O)N[C@H]2CCOC2=O)cc1	–	–	1800 nM	–
O=C(CCc1cccc(I)c1)N[C@H]1CCOC1=O	390 nM	1800 nM	–	–
O=C(Cc1cccc(C(F)(F)F)c1)N[C@H]1CCOC1=O	1400 nM	–	–	–
COc1ccc(CCC(=O)N[C@H]2CCOC2=O)cc1	–	6800 nM	–	–
O=C(CCc1ccc([N+](=O)[O-])cc1)N[C@H]1CCOC1=O	990 nM	3000 nM	1600 nM	inhibition (Escherichia coli [5]): 67%
O=C(COc1ccc(OC(F)(F)F)cc1)N[C@H]1CCOC1=O	–	–	–	EC50 [6]: 6300 nM; Activity (Escherichia coli [7]): 30%
CSc1ccc(CC(=O)N[C@H]2CCOC2=O)cc1	2100 nM	–	8400 nM	–
O=C(Cc1ccc(F)c(C(F)(F)F)c1)N[C@H]1CCOC1=O	1000 nM	–	–	–
O=C(CCc1ccc(F)cc1)N[C@H]1CCOC1=O	2700 nM	12000 nM	–	–
Cc1cccc(OCC(=O)N[C@H]2CCOC2=O)c1	–	7800 nM	1100 nM	–
O=C(COc1ccc(C(F)(F)F)cc1)N[C@H]1CCOC1=O	–	–	1600 nM	–
O=C(Cc1cccc2ccccc12)N[C@H]1CCOC1=O	1300 nM	–	–	–
O=C(Cc1cccc(I)c1)N[C@H]1CCOC1=O	–	4630 nM	–	–
